Experimental data from ChEMBL document CHEMBL1201862, “PubChem BioAssay data set” (2004).
Activity calls are given as the source filed them. Cut-off read from the data, not from the text of the source: actives have a measured IC50 and inactives only a lower limit.

These molecules were tested against Envelope glycoprotein gp160 (Human immunodeficiency virus 1, UniProt Q6QLK5) (assay: inhibitors of HIV fusion peptide binding, primary screen, biochemical, uHTS, fluorescence dequenching (AID 1986)).
Chain of Envelope glycoprotein gp160 (Q6QLK5 whole entry, the tested form may be a part): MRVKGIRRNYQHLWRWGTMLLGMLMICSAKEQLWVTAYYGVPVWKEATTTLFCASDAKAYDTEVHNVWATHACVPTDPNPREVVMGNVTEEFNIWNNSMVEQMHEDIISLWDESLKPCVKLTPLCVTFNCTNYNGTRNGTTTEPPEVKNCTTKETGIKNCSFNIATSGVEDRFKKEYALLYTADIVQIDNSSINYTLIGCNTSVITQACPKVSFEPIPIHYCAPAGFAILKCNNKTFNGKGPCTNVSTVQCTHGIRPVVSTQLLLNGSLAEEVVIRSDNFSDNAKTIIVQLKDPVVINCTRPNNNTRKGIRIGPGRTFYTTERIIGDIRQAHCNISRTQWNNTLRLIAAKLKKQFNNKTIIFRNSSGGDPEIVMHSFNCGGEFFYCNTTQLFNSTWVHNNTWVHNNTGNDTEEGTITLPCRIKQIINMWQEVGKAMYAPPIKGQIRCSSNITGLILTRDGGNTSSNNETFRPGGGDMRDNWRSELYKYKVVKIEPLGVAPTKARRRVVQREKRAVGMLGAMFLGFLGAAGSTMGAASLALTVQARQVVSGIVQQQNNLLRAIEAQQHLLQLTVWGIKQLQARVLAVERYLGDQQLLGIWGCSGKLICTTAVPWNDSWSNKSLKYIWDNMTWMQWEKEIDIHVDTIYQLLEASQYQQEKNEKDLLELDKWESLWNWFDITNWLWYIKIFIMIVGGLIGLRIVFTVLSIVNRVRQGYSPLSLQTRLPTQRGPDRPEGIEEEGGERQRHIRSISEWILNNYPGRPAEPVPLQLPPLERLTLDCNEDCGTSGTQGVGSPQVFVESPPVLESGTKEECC
In the case of `O=C(O)c1ccccc1NC(=O)c1ccccc1Nc1ccccc1`, the IC50 is reported as 17.5 µM (active). In the case of `CCOC(=O)C1=C(C)N=c2s/c(=C\c3ccc(OCC(=O)O)cc3)c(=O)n2C1c1ccc(OC(C)C)cc1` (centres undefined), the IC50 is reported as 16.3 µM (active). For `Cc1ccc(S(=O)(=O)Oc2ccc(/C=C3/C(=N)N4C(=NC3=O)SN=C4S(C)(=O)=O)cc2)cc1`, the IC50 was 16.9 µM (active). With `O=C(O)CCCCCN1C(=O)/C(=C\c2cn(-c3ccccc3)nc2-c2cccs2)SC1=S` the IC50 was 9.84 µM (active).
